# Results as given in PubChem BioAssay AID328 (DTP/NCI, 2004).
# Where “and” joins values, the source holds several entries; their conditions need not be identical. Equal entries are not always repeated. Inconclusive results and toxic doses are left out.
# System: BDF1 mice, P388 leukemia ip, median survival T/C
# Test: NCI In Vivo Anticancer Drug Screen. Data for tumor model P388 Leukemia (intraperitoneal) in B6D2F1 (BDF1) mice
# Conditions: endpoint: median survival time, higher = longer survival
# Method in brief: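 Vehicle-dosed animals serve as the reference; survival of compound-dosed, tumour-implanted mice is divided by it.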
# [1] = dose: 100.0 mg/kg/injection, schedule: Q04DX003 (ip), vehicle: saline with Tween-80
# [2] = dose: 50.0 mg/kg/injection, schedule: Q01DX009 (ip), vehicle: saline with Tween-80
# [3] = dose: 100.0 mg/kg/injection, schedule: Q01DX009 (ip), vehicle: saline with Tween-80
# [4] = dose: 200.0 mg/kg/injection, schedule: Q01DX009 (ip), vehicle: saline with Tween-80
# [5] = dose: 100.0 mg/kg/injection, schedule: Q04DX003 (ip), vehicle: saline
# [6] = dose: 200.0 mg/kg/injection, schedule: Q04DX003 (ip), vehicle: saline
# [7] = dose: 400.0 mg/kg/injection, schedule: Q04DX003 (ip), vehicle: saline
# [8] = dose: 400.0 mg/kg/injection, schedule: Q01DX009 (ip), vehicle: saline with Tween-80
# [9] = dose: 100.0 mg/kg/injection, schedule: Q04DX003 (ip), vehicle: Klucel (hydroxypropylcellulose) (HPC)
# [10] = dose: 200.0 mg/kg/injection, schedule: Q04DX003 (ip), vehicle: Klucel (hydroxypropylcellulose) (HPC)
# [11] = dose: 400.0 mg/kg/injection, schedule: Q04DX003 (ip), vehicle: Klucel (hydroxypropylcellulose) (HPC)
# [12] = dose: 50.0 mg/kg/injection, schedule: Q04DX003 (ip), vehicle: saline with Tween-80
# [13] = dose: 200.0 mg/kg/injection, schedule: Q04DX003 (ip), vehicle: saline with Tween-80
# [14] = dose: 400.0 mg/kg/injection, schedule: Q04DX003 (ip), vehicle: saline with Tween-80
# [15] = dose: 50.0 mg/kg/injection, schedule: Q04DX003 (ip), vehicle: Klucel (hydroxypropylcellulose) (HPC)
# [16] = dose: 100.0 mg/kg/injection, schedule: Q01DX009 (ip), vehicle: Klucel (hydroxypropylcellulose) (HPC)
# [17] = dose: 200.0 mg/kg/injection, schedule: Q01DX009 (ip), vehicle: Klucel (hydroxypropylcellulose) (HPC)
smiles,measurement,setting,value
CN1CCN=C1c1ccc(NC(=O)c2ccc(C(=O)Nc3ccc(C4=NCCN4C)cc3)c(N)c2)cc1,T/C,"dose: 0.5 mg/kg/injection, schedule: Q01DX009 (ip), vehicle: saline with Tween-80",150 % of control
same,T/C,"dose: 1.0 mg/kg/injection, schedule: Q01DX009 (ip), vehicle: saline with Tween-80",154 % of control
same,T/C,"dose: 2.0 mg/kg/injection, schedule: Q01DX009 (ip), vehicle: saline with Tween-80",181 % of control
same,T/C,"dose: 2.0 mg/kg/injection, schedule: Q01DX009 (ip), vehicle: saline",154 % of control
same,T/C,"dose: 3.0 mg/kg/injection, schedule: Q01DX009 (ip), vehicle: saline",166 % of control
Nc1ccc(C(=O)O)cn1,T/C,"dose: 20.0 mg/kg/injection, schedule: Q01DX009 (ip), vehicle: saline",105 % of control
same,T/C,"dose: 40.0 mg/kg/injection, schedule: Q01DX009 (ip), vehicle: saline",98 % of control
same,T/C,"dose: 80.0 mg/kg/injection, schedule: Q01DX009 (ip), vehicle: saline",110 % of control
Cc1ccc(CC(=O)O)cc1C,T/C,"dose: 44.0 mg/kg/injection, schedule: Q04DX003 (ip), vehicle: saline with Tween-80",109 % of control
same,T/C,"dose: 66.0 mg/kg/injection, schedule: Q04DX003 (ip), vehicle: saline with Tween-80",104 % of control
same,T/C,[1],104 % of control
same,T/C,"dose: 150.0 mg/kg/injection, schedule: Q04DX003 (ip), vehicle: saline with Tween-80",104 % of control
CC(=O)N1c2ccccc2C23CCN4CC5=CCOC(O)C(C5CC42)C13 (centres undefined),T/C,"dose: 30.0 mg/kg/injection, schedule: Q01DX009 (ip), vehicle: saline",152 % of control
COc1ccc(C(=O)/C=C/c2ccc(OCc3ccccc3)cc2)c(OC)c1,T/C,[2],103 % of control
same,T/C,[3],94 % of control
same,T/C,[4],90 % of control
COc1cc2c(cc1OC)C1CCN3CCCC3N1CC2 (centres undefined),T/C,"dose: 100.0 mg/kg/injection, schedule: Q01DX001 (ip), vehicle: Klucel (hydroxypropylcellulose) (HPC)",109 % of control
same,T/C,"dose: 200.0 mg/kg/injection, schedule: Q01DX001 (ip), vehicle: Klucel (hydroxypropylcellulose) (HPC)",90 % of control
CCC(=O)c1cc(OC)cc(OC)c1,T/C,[5],115 % of control
same,T/C,[6],120 % of control
same,T/C,[7],120 % of control
CC(=Nc1ccccc1)C1=C(O)C(Cc2ccccc2)NC1=O (centres undefined),T/C,[2],124 % of control
Cc1ccc2c(c1)CC(C)([CH2][Hg][Cl])O2 (centres undefined),T/C,"dose: 3.0 mg/kg/injection, schedule: Q01DX009 (ip), vehicle: Klucel (hydroxypropylcellulose) (HPC)",94 % of control
same,T/C,"dose: 3.0 mg/kg/injection, schedule: Q04DX003 (ip), vehicle: Klucel (hydroxypropylcellulose) (HPC)",103 % of control
same,T/C,"dose: 6.0 mg/kg/injection, schedule: Q01DX009 (ip), vehicle: Klucel (hydroxypropylcellulose) (HPC)",105 % of control
same,T/C,"dose: 6.0 mg/kg/injection, schedule: Q04DX003 (ip), vehicle: Klucel (hydroxypropylcellulose) (HPC)",94 % of control
same,T/C,"dose: 12.0 mg/kg/injection, schedule: Q01DX009 (ip), vehicle: Klucel (hydroxypropylcellulose) (HPC)",119 % of control
same,T/C,"dose: 12.0 mg/kg/injection, schedule: Q04DX003 (ip), vehicle: Klucel (hydroxypropylcellulose) (HPC)",100 % of control
Cc1[nH]c(N)nc(=S)c1CCC(=O)Nc1ccc(C(=O)NC(CCC(=O)O)C(=O)O)cc1 (centres undefined),T/C,[2],91 % of control
same,T/C,[3],99 % of control
same,T/C,[4],101 % of control
same,T/C,[8],106 % of control
COc1cc(C2NC(=O)C(C#N)=C(Nc3cccc(C)c3)S2)ccc1O (centres undefined),T/C,[2],101 % of control
same,T/C,[3],114 % of control
same,T/C,[4],119 % of control
CCCCCCCC(O)CCCC (centres undefined),T/C,[9],87 % of control
same,T/C,[10],91 % of control
same,T/C,[11],91 % of control
CCN(CC)CCOc1ccc(C2=C(c3ccccc3)CCc3cc(OC)ccc32)cc1,T/C,"dose: 12.5 mg/kg/injection, schedule: Q01DX009 (ip), vehicle: saline with Tween-80",90 % of control
same,T/C,"dose: 25.0 mg/kg/injection, schedule: Q01DX009 (ip), vehicle: saline with Tween-80",90 % of control
same,T/C,[2],95 % of control and 118 % of control
Nc1nccnc1N,T/C,[2],110 % of control
same,T/C,[12],95 % of control
same,T/C,[3],115 % of control
same,T/C,[1],100 % of control
same,T/C,[4],120 % of control
same,T/C,[13],87 % of control
NC(=O)NC(C(=O)O)(c1ccccc1)C1CCC1 (centres undefined),T/C,[12],99 % of control
same,T/C,[1],91 % of control
same,T/C,[13],95 % of control
same,T/C,[14],95 % of control
Cc1cc(C)c(-n2c(-c3ccc(Cl)cc3)nnc2-c2ccc(Br)cc2)c(C)c1,T/C,[9],104 % of control
same,T/C,[10],100 % of control
same,T/C,[11],90 % of control
CCOC(=O)Cn1cnc2cc(Cl)c([N+](=O)[O-])cc2c1=O,T/C,[15],96 % of control
same,T/C,[9],104 % of control
same,T/C,[10],102 % of control
same,T/C,[11],109 % of control
Cc1ccc(S(=O)(=O)OC2CCC(C(C)(C)C)CC2Cl)cc1 (centres undefined),T/C,[16],105 % of control
same,T/C,[9],100 % of control
same,T/C,[17],110 % of control
same,T/C,[10],86 % of control
same,T/C,"dose: 400.0 mg/kg/injection, schedule: Q01DX009 (ip), vehicle: Klucel (hydroxypropylcellulose) (HPC)",95 % of control
O=C1OC(=O)C2C1C(c1ccc(Cl)cc1)N1C3C(=O)OC(=O)C3C(c3ccc(Cl)cc3)N21 (centres undefined),T/C,[2],97 % of control
same,T/C,[3],93 % of control
same,T/C,[4],88 % of control
CC(=O)Nc1ccc(/C=C/C(=O)c2ccc(Cl)cc2)cc1,T/C,[3],100 % of control
same,T/C,[1],104 % of control
same,T/C,[4],100 % of control
same,T/C,[13],100 % of control
same,T/C,[8],100 % of control
same,T/C,[14],90 % of control
Cc1ccc(NS(=O)(=O)c2ccc(F)cc2)cc1Cl,T/C,[9],109 % of control
same,T/C,[10],100 % of control
same,T/C,[11],104 % of control
C[C@]12CC[C@H]3[C@@H](CCC4=C[C@@H](OC5OCC(OC6OC(CO)C(O)C(O)C6O)C(O)C5O)CC[C@@]43C=O)[C@@]1(O)CCC2C1=CC(=O)OC1 (some centres undefined),T/C,"dose: 2.5 mg/kg/injection, schedule: Q01DX009 (ip), vehicle: saline",122 % of control
same,T/C,"dose: 5.0 mg/kg/injection, schedule: Q01DX009 (ip), vehicle: saline",111 % of control
CCOC(=O)C(C)(C)CSC(C)(C)C(=O)OCC,T/C,[5],90 % of control
same,T/C,[6],90 % of control
same,T/C,[7],95 % of control
CN(C)c1ccc(/C=C/c2cc(N(CCO)CCO)c3ccccc3n2)cc1,T/C,[2],100 % of control
same,T/C,[3],99 % of control
same,T/C,[4],91 % of control
CN(Cc1ccc(Nc2ccccc2)cc1)C1CCCCC1,T/C,"dose: 50.0 mg/kg/injection, schedule: Q01DX009 (ip), vehicle: other",113 % of control
same,T/C,"dose: 100.0 mg/kg/injection, schedule: Q01DX009 (ip), vehicle: other",160 % of control
CN1CCC(CN2c3ccccc3Sc3ccccc32)CC1,T/C,"dose: 1.56 mg/kg/injection, schedule: Q01DX009 (ip), vehicle: Klucel (hydroxypropylcellulose) (HPC)",105 % of control
same,T/C,"dose: 3.12 mg/kg/injection, schedule: Q01DX009 (ip), vehicle: Klucel (hydroxypropylcellulose) (HPC)",86 % of control and 105 % of control
same,T/C,"dose: 6.25 mg/kg/injection, schedule: Q01DX009 (ip), vehicle: Klucel (hydroxypropylcellulose) (HPC)",95 % of control
same,T/C,"dose: 8.75 mg/kg/injection, schedule: Q04DX003 (ip), vehicle: Klucel (hydroxypropylcellulose) (HPC)",95 % of control
same,T/C,"dose: 17.5 mg/kg/injection, schedule: Q04DX003 (ip), vehicle: Klucel (hydroxypropylcellulose) (HPC)",95 % of control
same,T/C,"dose: 35.0 mg/kg/injection, schedule: Q04DX003 (ip), vehicle: Klucel (hydroxypropylcellulose) (HPC)",109 % of control
same,T/C,[15],110 % of control
same,T/C,"dose: 80.0 mg/kg/injection, schedule: Q04DX003 (ip), vehicle: Klucel (hydroxypropylcellulose) (HPC)",120 % of control
same,T/C,[1],118 % of control
same,T/C,[13],86 % of control
S=c1nc[nH]c2c1ncn2CN1CCCCC1,T/C,"dose: 66.0 mg/kg/injection, schedule: Q01DX009 (ip), vehicle: saline with Tween-80",122 % of control
same,T/C,"dose: 150.0 mg/kg/injection, schedule: Q01DX009 (ip), vehicle: saline with Tween-80",154 % of control
COc1ccc(C(=S)N(C)NC(=O)CC(=O)NN(C)C(=S)c2ccc(OC)cc2)cc1,T/C,"dose: 25.0 mg/kg/injection, schedule: Q01DX009 (ip), vehicle: Klucel (hydroxypropylcellulose) (HPC)",100 % of control
same,T/C,"dose: 50.0 mg/kg/injection, schedule: Q01DX009 (ip), vehicle: Klucel (hydroxypropylcellulose) (HPC)",102 % of control
same,T/C,[16],89 % of control
same,T/C,[17],100 % of control
C(=C\c1nc2ncccn2n1)/c1ccccc1,T/C,[2],101 % of control
same,T/C,[3],87 % of control
same,T/C,[4],100 % of control
